In ChEMBL document CHEMBL3045657, “Synthesis and biological evaluation of naphthalene, furan and pyrrole based chalcones as cytotoxic and antimicrobial agents” (2012):
Converted amounts (≈) assume the structure as drawn. The source made the active and inactive calls. No cut-off for these calls is given here.

Assays:
Assay type in all cases: functional
HEp-2 = assay: Cytotoxicity against Homo sapiens (human) Hep2 cells assessed as cell growth inhibition at 1 x 10^-5 M after 48 hr by SRB assay; conditions: HEp-2, 48 h, read-out: GI
Staphylococcus aureus = assay: Antibacterial activity against Staphylococcus aureus MTCC 96 after 24 hr by serial tube dilution method
IMR-32 = assay: Cytotoxicity against Homo sapiens (human) IMR32 cells assessed as cell growth inhibition at 1 x 10^-5 M after 48 hr by SRB assay; conditions: for inhibition of growth at 10 µM: IMR-32, 48 h, read-out: GI
Salmonella typhi = assay: Antibacterial activity against Salmonella enterica subsp. enterica serovar Typhi MTCC 1251 after 24 hr by serial tube dilution method
Bacillus subtilis = assay: Antibacterial activity against Bacillus subtilis MTCC 2451 after 24 hr by serial tube dilution method
PC-3 = assay: Cytotoxicity against Homo sapiens (human) PC3 cells assessed as cell growth inhibition at 1 x 10^-5 M after 48 hr by SRB assay; conditions: for inhibition of growth at 10 µM: PC-3, 48 h, read-out: GI
OVCAR = assay: Cytotoxicity against Homo sapiens (human) OVCAR cells assessed as cell growth inhibition at 1 x 10^-5 M after 48 hr by SRB assay; conditions: for inhibition of growth at 10 µM: read-out: GI
Escherichia coli = assay: Antibacterial activity against Escherichia coli MTCC 82 after 24 hr by serial tube dilution method
Candida albicans = assay: Antifungal activity against Candida albicans MTCC 3018 after 48 hr by serial tube dilution method; conditions: MTCC 3018, 48 h
Aspergillus niger = assay: Antifungal activity against Aspergillus niger MTCC 1344 after 48 hr by serial tube dilution method; conditions: MTCC 1344, 48 h
Pseudomonas aeruginosa = assay: Antibacterial activity against Pseudomonas aeruginosa MTCC 2642 after 24 hr by serial tube dilution method

| Compound | inhibition of growth at 10 µM (HEp-2) | MIC (Staphylococcus aureus; MTCC 96, 24 h) | inhibition of growth at 10 µM (IMR-32) | MIC (Salmonella typhi; MTCC 1251, 24 h) | MIC (Bacillus subtilis; MTCC 2451, 24 h) | inhibition of growth at 10 µM (PC-3) | inhibition of growth at 10 µM (OVCAR) | MIC (Escherichia coli; MTCC 82, 24 h) | MIC (Candida albicans) | MIC (Aspergillus niger) | MIC (Pseudomonas aeruginosa; MTCC 2642, 24 h) | growth inhibition (GI) (IMR-32) | growth inhibition (GI) (PC-3) | growth inhibition (GI) (OVCAR) | MIC (Staphylococcus aureus) | MIC (Pseudomonas aeruginosa) | MIC (Salmonella typhi) | MIC (Bacillus subtilis) | MIC (Escherichia coli) |
| --- | --- | --- | --- | --- | --- | --- | --- | --- | --- | --- | --- | --- | --- | --- | --- | --- | --- | --- | --- |
| COc1ccc(OC)c(/C=C/C(=O)c2ccc3ccccc3c2)c1 | 47% | 125 mg/L (≈ 393 µM) | 51% | 250 mg/L (≈ 785 µM) | 125 mg/L (≈ 393 µM) | 49% | 52% | 250 mg/L (≈ 785 µM) | – | – | – | – | – | – | – | – | – | – | – |
| COc1ccc(/C=C/C(=O)c2ccc3ccccc3c2)cc1 | 29% | – | 36% | – | – | 33% | 31% | – | – | – | – | – | – | – | – | – | – | – | – |
| OC(Cn1cncn1)(Cn1cncn1)c1ccc(F)cc1F [FLUCONAZOLE] | – | – | – | – | – | – | – | – | 0.3 mg/L (≈ 0.98 µM) | 0.2 mg/L (≈ 0.653 µM) | – | – | – | – | – | – | – | – | – |
| COc1ccc(/C=C/C(=O)c2ccc3ccccc3c2)cc1OC | 53% | 62.5 mg/L (≈ 196 µM) | 51% | 62.5 mg/L (≈ 196 µM) | 62.5 mg/L (≈ 196 µM) | 53% | 49% | 125 mg/L (≈ 393 µM) | 500 mg/L (≈ 1570 µM) | 250 mg/L (≈ 785 µM) | 125 mg/L (≈ 393 µM) | – | – | – | – | – | – | – | – |
| COc1ccc(/C=C/C(=O)c2ccco2)cc1O | 19% | 31.2 mg/L (≈ 128 µM) | 16% | 62.5 mg/L (≈ 256 µM) | 62.5 mg/L (≈ 256 µM) | 21% | 23% | 62.5 mg/L (≈ 256 µM) | 250 mg/L (≈ 1020 µM) | 250 mg/L (≈ 1020 µM) | 125 mg/L (≈ 512 µM) | – | – | – | – | – | – | – | – |
| O=C(/C=C/c1c(Cl)cccc1Cl)c1ccco1 | 11% | 62.5 mg/L (≈ 234 µM) | – | 125 mg/L (≈ 468 µM) | 125 mg/L (≈ 468 µM) | – | – | 62.5 mg/L (≈ 234 µM) | 250 mg/L (≈ 936 µM) | 250 mg/L (≈ 936 µM) | 250 mg/L (≈ 936 µM) | inactive | inactive | inactive | – | – | – | – | – |
| COc1cc(/C=C/C(=O)c2ccco2)cc(OC)c1OC | 47% | 15.6 mg/L (≈ 54.1 µM) | 49% | 31.2 mg/L (≈ 108 µM) | 31.2 mg/L (≈ 108 µM) | 42% | 28% | 62.5 mg/L (≈ 217 µM) | 62.5 mg/L (≈ 217 µM) | 62.5 mg/L (≈ 217 µM) | 15.6 mg/L (≈ 54.1 µM) | – | – | – | – | – | – | – | – |
| COc1ccc(/C=C/C(=O)c2ccco2)cc1OC | 27% | 31.2 mg/L (≈ 121 µM) | 33% | 15.6 mg/L (≈ 60.4 µM) | 31.2 mg/L (≈ 121 µM) | 29% | – | 15.6 mg/L (≈ 60.4 µM) | 250 mg/L (≈ 968 µM) | 125 mg/L (≈ 484 µM) | 31.2 mg/L (≈ 121 µM) | – | – | inactive | – | – | – | – | – |
| O=C(/C=C/c1c(Cl)cccc1Cl)c1ccc[nH]1 | 16% | 15.6 mg/L (≈ 58.6 µM) | 12% | 31.2 mg/L (≈ 117 µM) | 31.2 mg/L (≈ 117 µM) | – | – | 15.6 mg/L (≈ 58.6 µM) | 125 mg/L (≈ 470 µM) | 125 mg/L (≈ 470 µM) | 31.2 mg/L (≈ 117 µM) | – | inactive | inactive | – | – | – | – | – |
| O=C(/C=C/c1cccc(Cl)c1Cl)c1ccc[nH]1 | 15% | 7.8 mg/L (≈ 29.3 µM) | – | 15.6 mg/L (≈ 58.6 µM) | 31.2 mg/L (≈ 117 µM) | 11% | – | 15.6 mg/L (≈ 58.6 µM) | 250 mg/L (≈ 939 µM) | 125 mg/L (≈ 470 µM) | 7.8 mg/L (≈ 29.3 µM) | inactive | – | inactive | – | – | – | – | – |
| GENTAMICIN | – | – | – | – | – | – | – | – | – | – | – | – | – | – | 0.4 mg/L | 0.25 mg/L | 0.2 mg/L | 0.3 mg/L | 0.25 mg/L |
| COc1ccc(OC)c(/C=C/C(=O)c2ccco2)c1 | 29% | 62.5 mg/L (≈ 242 µM) | 31% | 62.5 mg/L (≈ 242 µM) | 31.2 mg/L (≈ 121 µM) | 23% | – | 31.2 mg/L (≈ 121 µM) | 125 mg/L (≈ 484 µM) | 125 mg/L (≈ 484 µM) | 31.2 mg/L (≈ 121 µM) | – | – | inactive | – | – | – | – | – |
| O=C(/C=C/c1ccccc1)c1ccc[nH]1 | 23% | 125 mg/L (≈ 634 µM) | 14% | 500 mg/L (≈ 2540 µM) | 250 mg/L (≈ 1270 µM) | 22% | 18% | 500 mg/L (≈ 2540 µM) | – | – | – | – | – | – | – | – | – | – | – |
| O=C(/C=C/c1ccco1)c1ccc2ccccc2c1 | 21% | 125 mg/L (≈ 503 µM) | 13% | 500 mg/L (≈ 2010 µM) | 250 mg/L (≈ 1010 µM) | 16% | – | – | – | – | 250 mg/L (≈ 1010 µM) | – | – | inactive | – | – | – | – | – |
| COc1cccc(/C=C/C(=O)c2ccc[nH]2)c1OC | 33% | – | 28% | – | – | 31% | 24% | – | – | – | – | – | – | – | – | – | – | – | – |
